Test results as given in ChEMBL document CHEMBL6114969, “Ultra-short lipopeptides containing d-amino acid exhibiting excellent stability and antibacterial activity against gram-positive bacteria” (Eur J Med Chem, 2025).
In brackets after ≈: the same amount, converted by molar mass. Activity calls are given as the source filed them. The rule behind the calls is not given here.

What was measured:
[1] = system: Staphylococcus aureus; assay: Antibacterial activity against ciprofloxacin-resistant Staphylococcus aureus ATCC 25923 incubated for 18 to 24 hrs; assay type: functional; conditions: time 18-24 hrs
[2] = system: Staphylococcus aureus; assay: Antibacterial activity against methicillin-resistant Staphylococcus aureus ATCC 33591 incubated for 18 to 24 hrs in presence of 1 mg/ml of chymotrypsin by broth microdilution method; assay type: functional; conditions: time 18-24 hrs
[3] = system: Staphylococcus aureus; assay: Synergistic antibacterial activity against methicillin-resistant Staphylococcus aureus ATCC 33591 assessed as fractional inhibitory concentration index upto 2 times MIC incubated for 18 to 24 hrs in presence of imipenem by checkerboard assay; assay type: functional; conditions: time 18-24 hrs
[4] = system: Staphylococcus aureus; assay: Induction of cell membrane damage in methicillin-resistant Staphylococcus aureus ATCC 33591 assessed as protein leakage at 2 to 8 times MIC measured upto 360 mins by absorbance based assay; assay type: functional, organism-based
[5] = system: Staphylococcus aureus; assay: Additive bactericidal activity against methicillin-resistant Staphylococcus aureus ATCC 33591 incubated for 18 to 24 hrs in presence of ciprofloxacin by time-kill assay; assay type: functional, organism-based; conditions: time 18-24 hrs
[6] = system: Staphylococcus aureus; assay: Antibacterial activity against methicillin-resistant Staphylococcus aureus ATCC 33591 infected in Balb/c mouse model of acute systemic infection assessed as reduction in inflammatory cell infiltration in heart at 10 mg/kg, ip measured after 5 days by H and E staining based analysis; assay type: functional, organism-based; conditions: time 5.0 day
[7] = system: Staphylococcus aureus; assay: Antibacterial activity against methicillin-resistant Staphylococcus aureus ATCC 33591 incubated for 18 to 24 hrs in presence of 1 mg/ml of trypsin by broth microdilution method; assay type: functional; conditions: time 18-24 hrs
[8] = system: Staphylococcus aureus; assay: Synergistic bactericidal activity against methicillin-resistant Staphylococcus aureus ATCC 33591 incubated for 18 to 24 hrs in presence of Polymyxin B by time-kill assay; assay type: functional, organism-based; conditions: time 18-24 hrs
[9] = system: Staphylococcus aureus; assay: Antibacterial activity against methicillin-resistant Staphylococcus aureus ATCC 33591 infected in Balb/c mouse model of pneumonia infection assessed as reduction in alveolar contraction in lung at 10 mg/kg, ip administered thrice at 4, 8 and 12 hrs post-infection measured after 24 hrs post-infection in presence of polymyxin B by H and E staining based analysis; assay type: functional, organism-based; conditions: time 20.0 hrs
[10] = system: Staphylococcus aureus; assay: Synergistic bactericidal activity against persistent methicillin-resistant Staphylococcus aureus ATCC 33591 incubated for 18 to 24 hrs in presence of vancomycin by time-kill assay; assay type: functional, organism-based; conditions: time 18-24 hrs
[11] = system: Staphylococcus aureus; assay: Antibacterial activity against methicillin-resistant Staphylococcus aureus ATCC 33591 infected in Balb/c mouse model of pneumonia infection assessed as reduction in bacterial load in lung at 10 mg/kg, ip administered thrice at 4, 8 and 12 hrs post-infection measured after 24 hrs post-infection; assay type: functional, organism-based; conditions: time 20.0 hrs
[12] = system: Staphylococcus aureus; assay: Antibacterial activity against methicillin-resistant Staphylococcus aureus ATCC 33591 infected in Balb/c mouse model of skin wound infection assessed as reduction in bacterial load in skin at 10 mg/kg, ip administered thrice at 1, 24 and 48 hrs post-infection measured after 72 hrs post-infection; assay type: functional, organism-based; conditions: time 71.0 hrs
[13] = system: Staphylococcus aureus; assay: Induction of drug resistance in methicillin-resistant Staphylococcus aureus ATCC 33591 at sub-MIC measured after 15 passages; assay type: functional, organism-based
[14] = system: Staphylococcus aureus; assay: Synergistic bactericidal activity against persistent methicillin-resistant Staphylococcus aureus ATCC 33591 incubated for 18 to 24 hrs in presence of imipenem by time-kill assay; assay type: functional, organism-based; conditions: time 18-24 hrs
[15] = system: Staphylococcus aureus; assay: Antibacterial activity against methicillin-resistant Staphylococcus aureus ATCC 33591 assessed as bacterial growth inhibition at 0.5 to 1 times MIC incubated for 18 to 24 hrs by time-kill assay; assay type: functional, organism-based; conditions: time 18-24 hrs
[16] = system: Staphylococcus aureus; assay: Synergistic bactericidal activity against persistent methicillin-resistant Staphylococcus aureus ATCC 33591 at high concentration incubated for 18 to 24 hrs in presence of gentamycin by time-kill assay; assay type: functional, organism-based; conditions: time 18-24 hrs
[17] = system: Staphylococcus aureus; assay: Antibacterial activity against methicillin-resistant Staphylococcus aureus ATCC 33591 assessed as fold change in MIC incubated for 18 to 24 hrs in presence of 10 percent FBS by broth microdilution method; assay type: functional; conditions: time 18-24 hrs
[18] = system: Staphylococcus aureus; assay: Antibacterial activity against methicillin-resistant Staphylococcus aureus ATCC 33591 infected in Balb/c mouse model of acute systemic infection assessed as reduction in cell swelling in liver at 10 mg/kg, ip measured after 5 days by H and E staining based analysis; assay type: functional, organism-based; conditions: time 5.0 day
[19] = system: Staphylococcus aureus; assay: Destruction of cell membrane in methicillin-resistant Staphylococcus aureus ATCC 33591 measured upto 360 mins by absorbance based assay; assay type: functional, organism-based
[20] = system: Staphylococcus aureus; assay: Induction of morphological changes in methicillin-resistant Staphylococcus aureus ATCC 33591 assessed as characteristic membrane rupture at 4 times MIC incubated for 2 hrs by SEM analysis; assay type: functional, organism-based
[21] = system: Staphylococcus aureus; assay: Synergistic bactericidal activity against persistent methicillin-resistant Staphylococcus aureus ATCC 33591 incubated for 18 to 24 hrs in presence of polymyxin B by time-kill assay; assay type: functional, organism-based; conditions: time 18-24 hrs
[22] = system: Staphylococcus aureus; assay: Induction of ROS production in methicillin-resistant Staphylococcus aureus ATCC 33591 at 4 times MIC measured upto 360 mins in presence of NAC by DCFH-DA dye based analysis; assay type: functional, organism-based
[23] = system: Staphylococcus aureus; assay: Antibacterial activity against gentamicin-resistant methicillin-resistant Staphylococcus aureus ATCC 33591 incubated for 18 to 24 hrs; assay type: functional; conditions: time 18-24 hrs
[24] = system: Staphylococcus aureus; assay: Antibacterial activity against polymyxin B-resistant methicillin-resistant Staphylococcus aureus ATCC 33591 incubated for 18 to 24 hrs; assay type: functional; conditions: time 18-24 hrs
[25] = system: Staphylococcus aureus; assay: Antibacterial activity against methicillin-resistant Staphylococcus aureus ATCC 33591 infected in Balb/c mouse model of skin wound infection assessed as reduction in inflammatory cell infiltration in skin at 10 mg/kg, ip administered thrice at 1, 24 and 48 hrs post-infection measured after 14 days in presence of polymyxin B by H and E staining based analysis; assay type: functional, organism-based; conditions: time 14.0 day
[26] = system: Staphylococcus aureus; assay: Antibacterial activity against ciprofloxacin-resistant methicillin-resistant Staphylococcus aureus ATCC 33591 incubated for 18 to 24 hrs; assay type: functional; conditions: time 18-24 hrs
[27] = system: Staphylococcus aureus; assay: Antibacterial activity against drug-resistant methicillin-resistant Staphylococcus aureus ATCC 33591 incubated for 18 to 24 hrs; assay type: functional; conditions: time 18-24 hrs
[28] = system: Staphylococcus aureus; assay: Synergistic bactericidal activity against persistent methicillin-resistant Staphylococcus aureus ATCC 33591 incubated for 18 to 24 hrs in presence of ciprofloxacin by time-kill assay; assay type: functional, organism-based; conditions: time 18-24 hrs
[29] = system: Staphylococcus aureus; assay: Antibacterial activity against methicillin-resistant Staphylococcus aureus ATCC 33591 infected in Balb/c mouse model of skin wound infection assessed as wound heal at 10 mg/kg, ip administered thrice at 1, 24 and 48 hrs post-infection measured after 14 days relative to control; assay type: functional; conditions: time 14 day
[30] = system: Staphylococcus aureus; assay: Bactericidal activity against methicillin-resistant Staphylococcus aureus ATCC 33591 at 4 times MIC incubated for 24 hrs in presence of 4 ug/ml LPS by absorbance based assay; assay type: functional, organism-based
[31] = Toxicity in Balb/c mouse assessed as survival rate at 20 to 40 mg/kg, ip measured after 7 days; assay type: organism-based; conditions: in vivo, dose 20-40 mg/kg, time 7 day
[32] = system: Staphylococcus aureus; assay: Antibacterial activity against methicillin-resistant Staphylococcus aureus ATCC 33591 infected in Balb/c mouse model of skin wound infection assessed as crusted back wound at 10 mg/kg, ip administered thrice at 1, 24 and 48 hrs post-infection measured after 9 days in presence of polymyxin B relative to control; assay type: functional; conditions: time 9 day
[33] = system: Staphylococcus aureus; assay: Induction of morphological changes in methicillin-resistant Staphylococcus aureus ATCC 33591 assessed as irregular atrophy at 2 times MIC incubated for 2 hrs by SEM analysis; assay type: functional, organism-based

With CCCCCCCCCCCC(=O)N[C@H](CCCNC(=N)N)C(=O)N[C@H](CCCNC(=N)N)C(=O)N[C@H](Cc1c[nH]c2ccccc12)C(=O)O the MIC [1] was 8 µM (≈ 5.59 µg/mL), the MIC [2] was 4 µM and the “fractional inhibitory concentration index (FICI)” value [3] was 0.25. For the same compound, the Activity [4] was “Active”, the Activity [5] was “Active” and the Activity [6] was “Active”. The MIC [7] was 4 µM, the Activity [8] was “Active; Compound Exhibited Better Effect Than Compound Alone-Treatment; Although It Was Lower Than Polymyxin B, It Significantly Reduced Dosage Of Polymyxin B And Reduced Toxicity Of The Drug” and the Activity [9] was “Not active; Compound Exerted Slightly More Severe Than Compound Treatment Alone”. The Activity [10] was “Dose-dependent-effect”, the Activity [11] was “Active” and the Activity [12] was “Active”. For the same compound, the Activity [13] was “inactive”, the Activity [14] was “Dose-dependent-effect” and the inhibition [15] was “Active”. For the same compound, the Activity [16] was “Active”, the “fold change (FC)” value [17] was 8 and the Activity [18] was “Active”. The Activity [19] was “Dose-dependent-effect”, the Activity [20] was “Active” and the Activity [21] was “Dose-dependent-effect”. The Activity [22] was “inactive”, the MIC [23] was 8 µM (≈ 5.59 µg/mL) and the MIC [24] was 16 µM (≈ 11.2 µg/mL). For the same compound, the Activity [25] was “Active”, the MIC [26] was 32 µM (≈ 22.4 µg/mL) and the MIC [27] was 8 µM (≈ 5.59 µg/mL). For the same compound, the Activity [28] was “Dose-dependent-effect”, the Activity [29] was 100% and the Activity [30] was “inactive”. The survival at 168 h [31] was 100%, the Activity [32] was 100% and the Activity [33] was “Active”.
